Test results as given in ChEMBL document CHEMBL1938244, “Synthesis, anticancer activity and apoptosis inducing ability of bisindole linked pyrrolo[2,1-c][1,4]benzodiazepine conjugates” (2012).
Activity calls are given as the source filed them. No cut-off for these calls is given here.

What was measured:
[1] = tested on: MCF7; experiment: Induction of cell cycle arrest in human MCF7 cells assessed as accumulation of cells in G0 phase at 2 uM after 24 hrs by flow cytometry (reference value: 2.9%); type: functional
[2] = tested on: MCF7; experiment: Inhibition of HDAC3 protein expression in human MCF7 cells at 2 uM after 24 hrs by Western blotting; type: functional, cell-based
[3] = tested on: MCF7; experiment: Inhibition of HDAC2 protein expression in human MCF7 cells at 2 uM after 24 hrs by Western blotting; type: functional, cell-based
[4] = tested on: MCF7; experiment: Induction of cell cycle arrest in human MCF7 cells assessed as accumulation of cells in S phase at 4 uM after 24 hrs by flow cytometry relative to untreated control; type: functional
[5] = tested on: MCF7; experiment: Inhibition of HDAC8 protein expression in human MCF7 cells at 2 uM after 24 hrs by Western blotting; type: functional, cell-based
[6] = tested on: MCF7; experiment: Induction of cell cycle arrest in human MCF7 cells assessed as accumulation of cells in G0 phase at 2 uM after 24 hrs by flow cytometry relative to untreated control; type: functional
[7] = tested on: MCF7; experiment: Induction of apoptosis in human MCF7 cells assessed as PARP-cleavage at 8 uM after 24 hrs by Western blot analysis; type: functional, cell-based
[8] = tested on: MCF7; experiment: Induction of cell cycle arrest in human MCF7 cells assessed as accumulation of cells in G2/M phase at 2 uM after 24 hrs by flow cytometry (reference value: 36.23%); type: functional
[9] = tested on: MCF7; experiment: Induction of cell cycle arrest in human MCF7 cells assessed as accumulation of cells in G0 phase at 8 uM after 24 hrs by flow cytometry relative to untreated control; type: functional
[10] = tested on: MCF7; experiment: Induction of cell cycle arrest in human MCF7 cells assessed as accumulation of cells in S phase at 8 uM after 24 hrs by flow cytometry (reference value: 5.55%); type: functional
[11] = tested on: MCF7; experiment: Induction of cell cycle arrest in human MCF7 cells assessed as accumulation of cells in S phase at 2 uM after 24 hrs by flow cytometry (reference value: 14.87%); type: functional
[12] = tested on: MCF7; experiment: Induction of apoptosis in human MCF7 cells assessed as caspase-7 activation at 8 uM after 24 hrs by Western blot analysis; type: functional, cell-based
[13] = tested on: MCF7; experiment: Induction of cell cycle arrest in human MCF7 cells assessed as accumulation of cells in G2/M phase at 2 uM after 24 hrs by flow cytometry relative to untreated control; type: functional
[14] = tested on: MCF7; experiment: Induction of cell cycle arrest in human MCF7 cells assessed as accumulation of cells in G0 phase at 4 uM after 24 hrs by flow cytometry relative to untreated control; type: functional
[15] = tested on: MCF7; experiment: Induction of cell cycle arrest in human MCF7 cells assessed as accumulation of cells in G1 phase at 2 uM after 24 hrs by flow cytometry (reference value: 46%); type: functional
[16] = tested on: MCF7; experiment: Induction of cell cycle arrest in human MCF7 cells assessed as accumulation of cells in G0 phase at 4 uM after 24 hrs by flow cytometry (reference value: 3.22%); type: functional
[17] = tested on: MCF7; experiment: Induction of cell cycle arrest in human MCF7 cells assessed as accumulation of cells in G1 phase at 8 uM after 24 hrs by flow cytometry relative to untreated control; type: functional
[18] = tested on: MCF7; experiment: Induction of cell cycle arrest in human MCF7 cells assessed as accumulation of cells in G1 phase at 8 uM after 24 hrs by flow cytometry (reference value: 65.58%); type: functional
[19] = tested on: MCF7; experiment: Induction of cell cycle arrest in human MCF7 cells assessed as accumulation of cells in G1 phase at 4 uM after 24 hrs by flow cytometry relative to untreated control; type: functional
[20] = tested on: MCF7; experiment: Induction of cell cycle arrest in human MCF7 cells assessed as accumulation of cells in S phase at 2 uM after 24 hrs by flow cytometry relative to untreated control; type: functional
[21] = tested on: MCF7; experiment: Induction of cell cycle arrest in human MCF7 cells assessed as accumulation of cells in S phase at 8 uM after 24 hrs by flow cytometry relative to untreated control; type: functional
[22] = tested on: MCF7; experiment: Induction of cell cycle arrest in human MCF7 cells assessed as accumulation of cells in S phase at 4 uM after 24 hrs by flow cytometry (reference value: 5.55%); type: functional
[23] = tested on: MCF7; experiment: Induction of cell cycle arrest in human MCF7 cells assessed as accumulation of cells in G2/M phase at 8 uM after 24 hrs by flow cytometry (reference value: 25.65%); type: functional
[24] = tested on: MCF7; experiment: Induction of cell cycle arrest in human MCF7 cells assessed as accumulation of cells in G1 phase at 2 uM after 24 hrs by flow cytometry relative to untreated control; type: functional
[25] = tested on: MCF7; experiment: Induction of cell cycle arrest in human MCF7 cells assessed as accumulation of cells in G2/M phase at 8 uM after 24 hrs by flow cytometry relative to untreated control; type: functional
[26] = molecular target: Tubulin (Homo sapiens) (UniProt P68371+Q9H4B7+P0DPH7+P68366+Q13509+Q71U36+P04350+Q3ZCM7+P07437+P68363+Q9BQE3+Q6PEY2+Q13885+Q9BVA1+Q9BUF5); experiment: Inhibition of tubulin polymerization in human MCF7 cells at 2 uM after 24 hrs by FITC-conjugated immunostaining assay; type: cell-based
[27] = tested on: MCF7; experiment: Induction of cell cycle arrest in human MCF7 cells assessed as accumulation of cells in G0 phase at 8 uM after 24 hrs by flow cytometry (reference value: 3.22%); type: functional
[28] = tested on: MCF7; experiment: Induction of cell cycle arrest in human MCF7 cells assessed as accumulation of cells in G1 phase at 4 uM after 24 hrs by flow cytometry (reference value: 65.58%); type: functional
[29] = tested on: MCF7; experiment: Induction of cell cycle arrest in human MCF7 cells assessed as accumulation of cells in G2/M phase at 4 uM after 24 hrs by flow cytometry (reference value: 25.65%); type: functional
[30] = tested on: MCF7; experiment: Inhibition of HDAC1 protein expression in human MCF7 cells at 2 uM after 24 hrs by Western blotting; type: functional, cell-based
[31] = tested on: MCF7; experiment: Anticancer activity against human MCF7 cells assessed as cell death at 2 uM after 24 hrs by MTT assay; type: functional
[32] = tested on: MCF7; experiment: Induction of cell cycle arrest in human MCF7 cells assessed as accumulation of cells in G2/M phase at 4 uM after 24 hrs by flow cytometry relative to untreated control; type: functional
[33] = tested on: KB; experiment: Anticancer activity against human KB cells by SRB method; type: functional
[34] = tested on: ZR-75-1; experiment: Anticancer activity against human ZR-75-1 cells by SRB method; type: functional
[35] = tested on: A2780; experiment: Anticancer activity against human A2780 cells by SRB method; type: functional
[36] = tested on: COLO 205; experiment: Anticancer activity against human COLO205 cells by SRB method; type: functional
[37] = tested on: MCF7; experiment: Anticancer activity against human MCF7 cells by SRB method; type: functional
[38] = tested on: SiHa; experiment: Anticancer activity against human SiHa cells by SRB method; type: functional
[39] = tested on: A549; experiment: Anticancer activity against human A549 cells by SRB method; type: functional

Row | Compound | GI50 [33] [µM] | GI50 [35] [µM] | GI50 [36] [µM] | GI50 [37] [µM] | Activity [1] [%] | inhibition [2] | inhibition [3] | Activity [4] [%] | inhibition [5] | Activity [6] [%] | Activity [7] | Activity [8] [%] | Activity [9] [%] | Activity [10] [%] | Activity [11] [%] | Activity [12] | Activity [13] [%] | Activity [14] [%] | Activity [15] [%] | GI50 [38] [µM] | also measured
1 | Oc1ccc(C(c2c[nH]c3ccccc23)c2c[nH]c3ccccc23)cc1 | – | – | – | – | 3 | Active | Active | 9.78 | Active | 3.16 | Active | 34 | 7.05 | 8.97 | 9 | Active | 33.7 | 5.01 | 54 | – | Activity [16]: 5%; Activity [17]: 46.19%; Activity [18]: 47.59%; Activity [19]: 49.65%; Activity [20]: 9.26%; Activity [21]: 8.99%; Activity [22]: 9.34%; Activity [23]: 36.44%; Activity [24]: 53.85%; Activity [25]: 37.97%; inhibition [26]: Active; Activity [27]: 7%; Activity [28]: 50.97%; Activity [29]: 34.69%; inhibition [30]: Active; Activity [31]: Active; Activity [32]: 35.56%
2 | COc1cc2c(cc1O)N=C[C@@H]1CCCN1C2=O | 0.17 | 0.14 | 0.11 | 0.17 | 3.72 | Active | Active | 8.56 | Active | 3.14 | Active | 34.4 | 29.68 | 4.59 | 8.26 | Active | 33.79 | 9.27 | 53.62 | 0.16 | Activity [16]: 9.56%; Activity [17]: 57.74%; Activity [18]: 58.22%; Activity [19]: 70.84%; Activity [20]: 8.02%; Activity [21]: 4.53%; Activity [22]: 9.57%; Activity [23]: 7.15%; Activity [24]: 55.11%; Activity [25]: 8.05%; inhibition [26]: inactive; Activity [27]: 30.04%; Activity [28]: 69.54%; Activity [29]: 11.33%; inhibition [30]: Active; GI50 [39]: 0.16 µM; Activity [31]: Active; Activity [32]: 11.31%
3 | Oc1cccc(C(c2c[nH]c3ccccc23)c2c[nH]c3ccccc23)c1 | – | – | – | – | 2.9 | Active | Active | 9.41 | Active | 2.8 | Active | 37 | 6.03 | 9.08 | 10.1 | Active | 36.03 | 3.63 | 50 | – | Activity [16]: 4%; Activity [17]: 45.99%; Activity [18]: 46.98%; Activity [19]: 50.56%; Activity [20]: 9.86%; Activity [21]: 10.02%; Activity [22]: 9.24%; Activity [23]: 37.93%; Activity [24]: 51.23%; Activity [25]: 37.97%; inhibition [26]: Active; Activity [27]: 6%; Activity [28]: 50.68%; Activity [29]: 36.08%; inhibition [30]: Active; Activity [31]: Active; Activity [32]: 36.3%

Further lines, with some results ahead:

Row | GI50 [33] [µM] | GI50 [35] [µM] | GI50 [36] [µM] | GI50 [37] [µM] | Compound | Activity [1] [%] | inhibition [2] | inhibition [3] | Activity [4] [%] | inhibition [5] | Activity [6] [%] | Activity [7] | Activity [8] [%] | Activity [9] [%] | Activity [10] [%] | Activity [11] [%] | Activity [12] | Activity [13] [%] | Activity [14] [%] | Activity [15] [%] | GI50 [38] [µM] | also measured
4 | 2.3 | 2.07 | 24 | 0.18 | COc1cc2c(cc1OCCCCOc1ccc(C(c3c[nH]c4ccccc34)c3c[nH]c4ccccc34)cc1)N=C[C@@H]1CCCN1C2=O | – | – | – | – | – | – | – | – | – | – | – | – | – | – | – | 2.49 | GI50 [34]: 26.5 µM
5 | – | 27 | 28.5 | 2.01 | COc1cc2c(cc1OCCCCOc1cccc(C(c3c[nH]c4ccccc34)c3c[nH]c4ccccc34)c1)N=C[C@@H]1CCCN1C2=O | – | – | – | – | – | – | – | – | – | – | – | – | – | – | – | – | –
6 | 30.1 | 2.29 | 2.3 | 2.01 | COc1cc2c(cc1OCCCCCCOc1cccc(C(c3c[nH]c4ccccc34)c3c[nH]c4ccccc34)c1)N=C[C@@H]1CCCN1C2=O | – | – | – | – | – | – | – | – | – | – | – | – | – | – | – | 30.8 | –
7 | – | 2.46 | – | 0.14 | COc1cc2c(cc1OCCCCCCOc1ccc(C(c3c[nH]c4ccccc34)c3c[nH]c4ccccc34)cc1)N=C[C@@H]1CCCN1C2=O | – | – | – | – | – | – | – | – | – | – | – | – | – | – | – | – | GI50 [39]: 29 µM
8 | 0.16 | < 0.1 | 14.7 | < 0.1 | COc1cccc2c1C(=O)c1c(O)c3c(c(O)c1C2=O)C[C@@](O)(C(=O)CO)C[C@@H]3O[C@H]1C[C@H](N)[C@H](O)[C@H](C)O1 [DOXORUBICIN] | – | – | – | – | – | – | – | – | – | – | – | – | – | – | – | 1.9 | GI50 [34]: < 0.1 µM; GI50 [39]: 13 µM
